Experimental data: ChEMBL document CHEMBL3621205, “High-Throughput Screening of Patient-Derived Cultures Reveals Potential for Precision Medicine in Glioblastoma” (ACS Med Chem Lett, 2015)
Active and inactive are the calls of the source. The calls are words filed in the database; no cut-off is given here.

What was measured:
Assay type in all cases: functional, cell-based
Glioma [1] = assay: Cytotoxicity against human Glioma cells (HF2876) after 72 hrs by CelltiterGlo assay in presence of Bcl2-inhibitor ABT-263
Glioma [2] = assay: Cytotoxicity against human Glioma cells (HF3013) after 72 hrs by CelltiterGlo assay in presence of Bcl2-inhibitor ABT-263
Glioma [3] = assay: Cytotoxicity against human Glioma cells (HF2476) after 72 hrs by CelltiterGlo assay in presence of Bcl2-inhibitor ABT-263
Glioma [4] = assay: Cytotoxicity against human Glioma cells (HF2303) after 72 hrs by CelltiterGlo assay in presence of Bcl2-inhibitor ABT-263
Glioma [5] = assay: Decrease in phosphorylated S6 ribosomal protein level at Ser235 residue in human Glioma cells (HF2476) by western blot analysis
Glioma [6] = assay: Decrease in phosphorylated S6 ribosomal protein level at Ser236 residue in human Glioma cells (HF2476) by western blot analysis
Glioma [7] = assay: Decrease in phosphorylated S6 ribosomal protein level at Ser236 residue in human Glioma cells (HF2876) by western blot analysis
Glioma [8] = assay: Decrease in phosphorylated S6 ribosomal protein level at Ser235 residue in human Glioma cells (HF2876) by western blot analysis
Glioma [9] = assay: Cytotoxicity against human Glioma cells (HF2876) after 72 hrs by CelltiterGlo assay in presence of mTOR inhibitor AZD-8055
Glioma [10] = assay: Cytotoxicity against human Glioma cells (HF2303) after 72 hrs by CelltiterGlo assay
Glioma [11] = assay: Induction of apoptosis in human Glioma cells (HF2476) assessed as increase in cleaved caspase-3 level by western blot analysis
Glioma [12] = assay: Cytotoxicity against human Glioma cells (HF3013) after 72 hrs by CelltiterGlo assay in presence of mTOR inhibitor AZD-8055
Glioma [13] = assay: Induction of apoptosis in human Glioma cells (HF2876) assessed as increase in cleaved caspase-3 level by western blot analysis
Glioma [14] = assay: Cytotoxicity against human Glioma cells (HF2876) after 72 hrs by CelltiterGlo assay
Glioma [15] = assay: Cytotoxicity against human Glioma cells (HF2303) after 72 hrs by CelltiterGlo assay in presence of mTOR inhibitor AZD-8055
Glioma [16] = assay: Cytotoxicity against human Glioma cells (HF2476) after 72 hrs by CelltiterGlo assay in presence of mTOR inhibitor AZD-8055
Glioma [17] = assay: Cytotoxicity against human Glioma cells (HF2476) after 72 hrs by CelltiterGlo assay
Glioma [18] = assay: Cytotoxicity against human Glioma cells (HF3013) after 72 hrs by CelltiterGlo assay
Glioma [19] = assay: Cytotoxicity against human Glioma cells (HF2790) at 50 uM after 72 hrs by CelltiterGlo assay
Glioma [20] = assay: Cytotoxicity against human Glioma cells (HF2303) at 50 uM after 72 hrs by CelltiterGlo assay
Glioma [21] = assay: Cytotoxicity against human Glioma cells (HF3013) at 50 uM after 72 hrs by CelltiterGlo assay
Glioma [22] = assay: Cytotoxicity against human Glioma cells (HF2876) at 50 uM after 72 hrs by CelltiterGlo assay
Glioma [23] = assay: Cytotoxicity against human Glioma cells (HF2885) at 50 uM after 72 hrs by CelltiterGlo assay
Glioma [24] = assay: Cytotoxicity against human Glioma cells (HF2476) at 50 uM after 72 hrs by CelltiterGlo assay
Glioma [25] = assay: Cytotoxicity against human Glioma cells (HF2381) at 50 uM after 72 hrs by CelltiterGlo assay

For `COc1ccc(-c2ccc3c(N4CCOC[C@@H]4C)nc(N4CCOC[C@@H]4C)nc3n2)cc1CO`, the Activity (Glioma [1]) was “inactive”, the Activity (Glioma [2]) was “Active” and the Activity (Glioma [3]) was “Active”. The Activity (Glioma [4]) was “inactive”, the inhibition (Glioma [5]) was “Active” and the inhibition (Glioma [6]) was “Active”. For the same compound, the inhibition (Glioma [7]) was “Active” and the inhibition (Glioma [8]) was “Active”.

With `CC1(C)CCC(c2ccc(Cl)cc2)=C(CN2CCN(c3ccc(C(=O)NS(=O)(=O)c4ccc(N[C@H](CCN5CCOCC5)CSc5ccccc5)c(S(=O)(=O)C(F)(F)F)c4)cc3)CC2)C1` the Activity (Glioma [9]) was “Active”, the Activity (Glioma [10]) was “inactive” and the Activity (Glioma [11]) was “Active”. The Activity (Glioma [12]) was “Active”, the Activity (Glioma [13]) was “Active” and the Activity (Glioma [14]) was “inactive”. For the same compound, the Activity (Glioma [15]) was “Active”, the Activity (Glioma [16]) was “Active” and the Activity (Glioma [17]) was “inactive”. For the same compound, the Activity (Glioma [18]) was “inactive”.

With `Cn1nnc2c(C(N)=O)ncn2c1=O` the Activity (Glioma [19]) was “inactive”, the Activity (Glioma [20]) was “inactive” and the Activity (Glioma [21]) was “inactive”. For the same compound, the Activity (Glioma [22]) was “inactive”, the Activity (Glioma [23]) was “inactive” and the Activity (Glioma [24]) was “inactive”. For the same compound, the Activity (Glioma [25]) was “inactive”.
